From patent US11850280B1 (priority 2020, dated 2023)

Settings: in vivo

In the case of Ivermectin, the “blood plasma levels versus dosage” value is reported as “dose-response relationship”.
